From the OligoGym collection
Oligonucleotides are written 5' to 3', each unit as a sugar letter and its base; * is a phosphorothioate linkage, no mark a phosphodiester; rarer units and linkages stand in square brackets, end groups in braces. Plain capitals give the bases only. d = 2'-deoxy (DNA); r = 2'-OH (RNA)

Target: P2RX3
Assay: reporter assay of Huesken 2005
Settings: siRNA
Further: test concentration or dose not given here.

Substance	normalised inhibition (eCFP-eYFP dual reporter) [%]
sense rCrUrArCrGrCrCrArArCrArGrArGrUrCrArUrGdTdT / antisense rCrArUrGrArCrUrCrUrGrUrUrGrGrCrGrUrArGdAdG	53.4
sense rCrUrCrGrArCrArGrCrGrUrUrUrCrUrGrArGrAdTdT / antisense rUrCrUrCrArGrArArArCrGrCrUrGrUrCrGrArGdCdC	64.2
sense rCrUrCrUrGrUrGrCrUrCrCrGrGrArCrCrUrGrUdTdT / antisense rArCrArGrGrUrCrCrGrGrArGrCrArCrArGrArGdCdT	41.9
sense rCrUrGrArArArArUrCrArGrArUrGrCrArArGrGdTdT / antisense rCrCrUrUrGrCrArUrCrUrGrArUrUrUrUrCrArGdTdA	85.5
sense rCrUrGrArUrUrArCrGrUrGrArCrGrCrCrArCrCdTdT / antisense rGrGrUrGrGrCrGrUrCrArCrGrUrArArUrCrArGdAdC	50
sense rCrUrGrGrArCrCrArUrCrGrGrGrArUrCrArUrCdTdT / antisense rGrArUrGrArUrCrCrCrGrArUrGrGrUrCrCrArGdCdT	60.7
sense rCrUrUrCrCrCrArArCrCrUrGrArCrArGrCrCrAdTdT / antisense rUrGrGrCrUrGrUrCrArGrGrUrUrGrGrGrArArGdGdA	66.3
sense rCrUrUrUrArCrUrUrCrUrGrUrGrGrGrArGrUrGdTdT / antisense rCrArCrUrCrCrCrArCrArGrArArGrUrArArArGdGdC	67.7
sense rGrArArArCrGrCrCrCrArUrCrArUrGrArUrGrGdTdT / antisense rCrCrArUrCrArUrGrArUrGrGrGrCrGrUrUrUrCdCdA	48.7
sense rGrArArGrCrUrGrArGrArArCrUrUrCrArCrUrAdTdT / antisense rUrArGrUrGrArArGrUrUrCrUrCrArGrCrUrUrCdCdA	88.8
sense rGrArCrCrCrUrUrUrCrUrGrCrCrCrCrArUrCrUdTdT / antisense rArGrArUrGrGrGrGrCrArGrArArArGrGrGrUrCdCdT	65.8
sense rGrArCrUrUrGrGrArCrArArGrGrCrCrUrGrGrGdTdT / antisense rCrCrCrArGrGrCrCrUrUrGrUrCrCrArArGrUrCdGdC	93
sense rGrArGrArArArArGrCrArGrCrGrUrGrUrCrCrCdTdT / antisense rGrGrGrArCrArCrGrCrUrGrCrUrUrUrUrCrUrCdAdG	68.3
sense rGrArGrGrArGrArArArUrArCrCrGrCrUrGrUrGdTdT / antisense rCrArCrArGrCrGrGrUrArUrUrUrCrUrCrCrUrCdAdC	67.4
sense rGrArGrUrArGrUrUrCrArGrCrUrUrCrUrGrArUdTdT / antisense rArUrCrArGrArArGrCrUrGrArArCrUrArCrUrCdGdG	91.8
sense rGrArUrUrCrUrGrCrCrCrArGrArGrArGrUrGrAdTdT / antisense rUrCrArCrUrCrUrCrUrGrGrGrCrArGrArArUrCdCdT	96.9
sense rGrCrArCrCrUrCrGrGrUrCrUrUrUrGrUrCrArUdTdT / antisense rArUrGrArCrArArArGrArCrCrGrArGrGrUrGrCdCdC	85.9
sense rGrCrGrGrArGrArArGrCrArGrUrCrCrArCrCrGdTdT / antisense rCrGrGrUrGrGrArCrUrGrCrUrUrCrUrCrCrGrCdTdG	81.8
sense rGrCrGrGrCrCrUrUrUrArCrUrUrCrUrGrUrGrGdTdT / antisense rCrCrArCrArGrArArGrUrArArArGrGrCrCrGrCdCdA	61.4
sense rGrCrGrGrGrGrCrArGrGrArUrUrUrUrGrCrCrAdTdT / antisense rUrGrGrCrArArArArUrCrCrUrGrCrCrCrCrGrCdAdA	67.8
